Among the test systems are CAKI-1 renal; CCRF-CEM leukemia; HCC-2998 colon; HCT-15 colon; HL-60(TB) leukemia; HOP-92 NSCLC; IGROV1 ovarian; K-562 leukemia; NCI-H226 lung; OVCAR-4 ovarian; RXF 393 renal; SK-MEL-5 melanoma; SNB-19 CNS; SR leukemia; SW-620 colon; TK-10 renal; U251 CNS; DU-145 prostate; PC-3 prostate; MDA-N.
Common to all, as to assay: growth of human tumour cells (NCI), 48 h

Among the data in PubChem BioAssay (NCI) are TGI values, retold here.

Molecules are shown by their SMILES.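 Briefly, cells in 96-well plates were exposed to five compound concentrations for 48 h, and endpoints were estimated by linear interpolation. TGI: concentration producing complete growth inhibition.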

Consider `COC1=C(C)C(=O)C2C(C1=O)C(c1ccc(OC)c(OC)c1)[C@H]2C` (stereo partly drawn), for which the TGI in the assay with CAKI-1 renal, with CCRF-CEM leukemia, in the assay on HCC-2998 colon, in the assay on HCT-15 colon, with HL-60(TB) leukemia and in the assay with HOP-92 NSCLC was more than 100 µM throughout. Moreover, the TGI with IGROV1 ovarian, in the assay with K-562 leukemia, in the assay on NCI-H226 lung, in the assay with OVCAR-4 ovarian, in the assay on RXF 393 renal and in the assay with SK-MEL-5 melanoma was more than 100 µM each time. The TGI in the assay with SNB-19 CNS, with SR leukemia, in the assay with SW-620 colon, in the assay on TK-10 renal and in the assay on U251 CNS was more than 100 µM each time.
Take `COC(=O)C(C(=O)C(=O)Nc1c(Cl)cc([N+](=O)[O-])cc1Cl)c1nc2cc(C)c(C)cc2[nH]c1=O` (stereo not drawn): the TGI in the assay with CAKI-1 renal, in the assay with CCRF-CEM leukemia, with HCC-2998 colon, in the assay with HCT-15 colon, with HL-60(TB) leukemia and with HOP-92 NSCLC was more than 100 µM in each case. Besides, the TGI in the assay with IGROV1 ovarian, with K-562 leukemia, with NCI-H226 lung, in the assay with OVCAR-4 ovarian, in the assay with RXF 393 renal and with SNB-19 CNS was more than 100 µM throughout. The TGI with SW-620 colon, in the assay on TK-10 renal and in the assay on U251 CNS was more than 100 µM in each case.
Take `Nn1c(-c2ccccc2Nc2ccccc2-c2n[nH]c(=S)n2N)n[nH]c1=S`: the TGI in the assay on CCRF-CEM leukemia, in the assay with DU-145 prostate, with HCC-2998 colon, with HCT-15 colon, in the assay with HL-60(TB) leukemia and in the assay with HOP-92 NSCLC was more than 50 µM in each case. Further, the TGI in the assay on IGROV1 ovarian, in the assay with K-562 leukemia, in the assay with NCI-H226 lung, in the assay with OVCAR-4 ovarian, in the assay on PC-3 prostate and with RXF 393 renal was more than 50 µM each time. The TGI with SK-MEL-5 melanoma, with SNB-19 CNS, with SR leukemia, with SW-620 colon, in the assay on TK-10 renal and in the assay on U251 CNS was more than 50 µM each time.
In the case of `O=S1(=O)COc2ccccc2-c2ncncc21`, the TGI in the assay with CAKI-1 renal, in the assay on CCRF-CEM leukemia, in the assay on HCC-2998 colon, with HCT-15 colon, in the assay on HL-60(TB) leukemia and with HOP-92 NSCLC was more than 100 µM throughout. Further, the TGI with IGROV1 ovarian, with K-562 leukemia, in the assay with NCI-H226 lung, in the assay on OVCAR-4 ovarian, in the assay with RXF 393 renal and in the assay with SK-MEL-5 melanoma was more than 100 µM each time. Moreover, the TGI in the assay with SNB-19 CNS, with SR leukemia, with SW-620 colon, with TK-10 renal and in the assay with U251 CNS was more than 100 µM each time.
`CC1=NN(c2cccc(Cl)c2)C(=N/c2nc3ccccc3s2)/C1=C\C=C\c1ccccc1`: the TGI was more than 100 µM in the assay on CAKI-1 renal; more than 100 µM with CCRF-CEM leukemia; more than 100 µM with DU-145 prostate; more than 100 µM in the assay on HCT-15 colon; 92.8 µM with HL-60(TB) leukemia; 82.8 µM with IGROV1 ovarian. For the same molecule, the TGI in the assay on K-562 leukemia is more than 100 µM; in the assay with MDA-N, more than 100 µM; in the assay on NCI-H226 lung, more than 100 µM; in the assay on OVCAR-4 ovarian it was more than 100 µM; in the assay with RXF 393 renal, more than 100 µM; in the assay on SK-MEL-5 melanoma it was 59.2 µM. Moreover, the TGI in the assay on SR leukemia is 25.9 µM; in the assay on SW-620 colon it was more than 100 µM; with TK-10 renal, more than 100 µM.
Regarding `CC(C)(C)OC(=O)N1C[C@H](CC(=O)OCc2ccccc2)C[C@H]1C(=O)OCC(Cl)(Cl)Cl`, the TGI was more than 50 µM with CAKI-1 renal; more than 50 µM in the assay on CCRF-CEM leukemia; more than 50 µM in the assay on DU-145 prostate; 45.3 µM with HCC-2998 colon; more than 50 µM in the assay on HCT-15 colon; more than 50 µM in the assay with HL-60(TB) leukemia. Also, the TGI with HOP-92 NSCLC was 21.5 µM; with K-562 leukemia, more than 50 µM; with NCI-H226 lung it was 29.1 µM; in the assay on OVCAR-4 ovarian it was more than 50 µM; with PC-3 prostate, more than 50 µM; with RXF 393 renal it was more than 50 µM. For the same molecule, the TGI in the assay on SK-MEL-5 melanoma is 8.13 µM; with SNB-19 CNS it was more than 50 µM; in the assay on SR leukemia, 15.7 µM; in the assay with SW-620 colon it was more than 50 µM; in the assay with TK-10 renal, more than 50 µM; in the assay on U251 CNS it was 16.1 µM.
As for `O=C(CC(=O)C(=O)CC(=O)OCc1ccccc1)OCc1ccccc1`, the TGI with CAKI-1 renal, in the assay on CCRF-CEM leukemia, with HCC-2998 colon, with HCT-15 colon, in the assay on HL-60(TB) leukemia and in the assay with HOP-92 NSCLC was more than 100 µM each time. Moreover, the TGI in the assay with IGROV1 ovarian, with K-562 leukemia, in the assay on OVCAR-4 ovarian, in the assay on RXF 393 renal, with SK-MEL-5 melanoma and with SNB-19 CNS was more than 100 µM in each case. The TGI in the assay with SR leukemia, in the assay with SW-620 colon, in the assay on TK-10 renal and in the assay with U251 CNS was more than 100 µM each time.
In the case of `O=C(O)C(F)(OC(F)(F)C(F)(F)C(F)(F)F)C(F)(F)F` (stereo not drawn), the TGI with CAKI-1 renal, in the assay on DU-145 prostate, in the assay with HCC-2998 colon, in the assay on HCT-15 colon, with HL-60(TB) leukemia and in the assay on HOP-92 NSCLC was more than 100 µM each time. Further, the TGI in the assay with IGROV1 ovarian, in the assay on K-562 leukemia, with NCI-H226 lung, in the assay with OVCAR-4 ovarian, with PC-3 prostate and in the assay with RXF 393 renal was more than 100 µM in each case. The TGI with SK-MEL-5 melanoma, in the assay with SNB-19 CNS, in the assay on SW-620 colon, in the assay with TK-10 renal and in the assay with U251 CNS was more than 100 µM each time.
